Like-named read-outs stand apart in the source and are kept apart here.
How the values were obtained:
[1] = test system: mouse T cell lymphoma cells (EL4); conditions: 18 to 24 hours
Method: (§1) The cytotoxicity assay was performed by the conventional method [H. Lee et al., Regul. Pept. (2008), 147, 72-81]. The cells of Reference Example 1 were dispensed in a 96-well plate at a concentration of 1×10^4 cells/well for R182 and A2780 cells together with 0.1 mL of 10% FBS containing cell medium, and a concentration of 1×10^5 cells/well for […] the cells were cultured for 24 hours and then cultured for 12-16 hours in the absence of FBS.
(§2) The cultured cells were treated with various concentrations of calcium chloride (CaCl2, Sigma-Aldrich) at concentrations of 10, 50, 100, 200 and 300 mM and cultured for 18 to 24 hours to perform WST-1 assay (EZ-Cytox Cell Viability Assay kit, Daeillab Service, Seoul, Korea) for cell cytotoxicity assay.
(§3) WST-1 reagent of 10 μL was added to each well and incubated for 2 hours in a humidified incubator at 37° C. and 5% CO2 and the absorbance was measured at 450 nm using a microplate reader (Tecan, M, Switzerland) to calculate the percent growth rate.

[2] = test system: human ovarian cancer cell R182
Method: as §1, §2, §3

[3] = test system: human ovarian cancer cells A2780
Method: as §1, §2, §3

CREC cells = conditions: 18 to 24 hours
Method: The cells of Reference Example 1 were dispensed in a 96-well plate at a concentration of 1×10^4 cells/well for R182 and A2780 cells together with 0.1 mL of 10% FBS containing cell medium, and a concentration of 1×10^5 cells/well for R182 and A2780 cells, and the cells were cultured for 24 hours and then cultured for 12-16 hours in the absence of FBS.

[4] = test system: human ovarian cancer cell A2780; assay: cells; conditions: for viability at 0.5 µM: A2780, 24 h
Method: In the case of A2780 cells, 0.125 wt % agarose-7.5 wt % marine collagen-1 wt % alginate composite hydrogel support was prepared in the same manner as in Example 9, the cells were added to 96-well plate to induce the gelation at 4° C. for 5-10 minutes, and then cultured in the medium. In addition, the conventional two-dimensional cell culture was also performed as a control for three-dimensional cell culture.
(§5) In order to perform a sensitivity assay for an anticancer agent, EL4 and human ovarian cancer cell A2780 were cultured in an agarose-marine collagen-alginate composite hydrogel support in a two-dimensional and three-dimensional environment and an efficacy test for an anticancer agent was performed. EL4 cells cultured in two-dimensional culture conditions and EL4 cells cultured three-dimensionally in an agarose-marine collagen-alginate composite hydrogel support were treated with 5 μM doxorubicin (5927, cell signaling) and 100 μM resveratrol and the human ovarian cancer cell A2780 was treated with paclitaxel at a concentration of 0.5 μM for 24 hours, and then with WST-1 reagent, and absorbance was measured at 450 nm by a microplate reader to calculate percent growth rate.
In addition, 10 and 20 μM paclitaxel, and 30 and 50 μM curcumin were added to A2780 cells cultured in two-dimensional condition and A2780 cells cultured three-dimensionally for 7 days in agarose-marine collagen-alginate composite hydrogel supports, and the control group was treated with DMSO at the same concentration as the experimental group. The WST-1 reagent was then treated and the absorbance at 450 nm was measured by a microplate reader to calculate the percentage growth rate.

[5] = test system: human non-small cell lung cancer (NCI-H1703) cells; assay: Anticancer drug susceptibility, WST-1 cell viability, 2D culture vs 3D culture on Fc 4%-Sc 50% fish collagen/PCL nanofiber support; type: cell-based; conditions: 3 μM doxorubicin, read-out: cell viability as compared with the control group
Method: (§4) First, an Fc 4%-Sc 50% fish collagen/PCL nanofiber support prepared in the same manner as in Example 1, was placed in a 96-well plate and NCI-H1703 and DU-145 cells were inoculated at a concentration of 5×10^4 cells/well. […] The results are expressed as mean±standard deviation (SD) for each analysis. Statistical analysis was performed using a two-tailed t-test and statistical significance was evaluated based on P<0.05.

EL4 cells = assay: cells; conditions: Mus musculus
Method: In the case of EL4 cells, 0.125 wt % agarose-10 wt % marine collagen-1 wt % alginate composite hydrogel support was prepared in the same manner as in Example 9, and cells were added, and the mixture liquid was added to a 1 mL syringe with 80 μL to induce the gelation at 4° C. for 5-10 minutes, and then cultured in a 48-well plate.
as §5

[6] = test system: prostate cancer cell line DU-145; assay: Anticancer drug susceptibility, WST-1 cell viability, 2D culture vs 3D culture on Fc 4%-Sc 50% fish collagen/PCL nanofiber support; type: cell-based; conditions: Homo sapiens, 3 μM paclitaxel, read-out: cell viability as compared with the control group
Method: as §4

[7] = EL4, read-out: cell viability compared to the control group
[8] = EL4, read-out: viability as compared with the control group

Compound: [Ca+2].[Cl-].[Cl-] [CaCl2, calcium chloride]
- dose-dependent cytotoxic effect (WST-1, percent growth rate) ([1]; 10 mM): 101.3%
- dose-dependent cytotoxic effect (WST-1, percent growth rate) ([1]; 50 mM): 59.2%
- dose-dependent cytotoxic effect (WST-1, percent growth rate) ([1]; 100 mM): 25.4%
- dose-dependent cytotoxic effect (WST-1, percent growth rate) ([1]; 200 mM): 11.2%
- dose-dependent cytotoxic effect (WST-1, percent growth rate) ([1]; 300 mM): 9.7%
- cytotoxic effect (WST-1, percent growth rate) ([2]; 50 mM): 34.1%
- cytotoxic effect (WST-1, percent growth rate) ([2]; 100 mM): 26.4%
- cytotoxic effect (WST-1, percent growth rate) ([2]; 150 mM): 21.1%
- cytotoxic effect (WST-1, percent growth rate) ([2]; 200 mM): 21.4%
- cytotoxic effect (WST-1, percent growth rate) ([2]; 250 mM): 24.9%
- cytotoxic effect (WST-1, percent growth rate) ([2]; 300 mM): 25.6%
- dose-dependent cytotoxic effect (WST-1, percent growth rate) ([3]; 50 mM): 74.9%
- dose-dependent cytotoxic effect (WST-1, percent growth rate) ([3]; 100 mM): 65.9%
- dose-dependent cytotoxic effect (WST-1, percent growth rate) ([3]; 150 mM): 41.5%
- dose-dependent cytotoxic effect (WST-1, percent growth rate) ([3]; 200 mM): 37.9%
- dose-dependent cytotoxic effect (WST-1, percent growth rate) ([3]; 250 mM): 39.5%
- dose-dependent cytotoxic effect (WST-1, percent growth rate) ([3]; 300 mM): 43.7%
- dose-dependent cytotoxic effect (WST-1, percent growth rate) (CREC cells; 10 mM): 81.1%
- dose-dependent cytotoxic effect (WST-1, percent growth rate) (CREC cells; 50 mM): 36.8%
- dose-dependent cytotoxic effect (WST-1, percent growth rate) (CREC cells; 100 mM): 23.0%
- dose-dependent cytotoxic effect (WST-1, percent growth rate) (CREC cells; 200 mM): 9.9%
- dose-dependent cytotoxic effect (WST-1, percent growth rate) (CREC cells; 300 mM): 10.3%

Compound: COc1cc(/C=C/C(=O)CC(=O)/C=C/c2ccc(O)c(OC)c2)ccc1O [curcumin]
- viability at 30 µM ([4]; A2780, read-out: cell viability, 30 μM curcumin, second pair of values, printed again as two-dimensional environment): 95%
- viability at 30 µM ([4]; A2780, read-out: cell viability, 30 μM curcumin, two-dimensional environment): 42.5%
- viability at 50 µM ([4]; A2780, read-out: cell viability, 50 μM curcumin, second pair of values, printed again as two-dimensional environment): 82.4%
- viability at 50 µM ([4]; A2780, read-out: cell viability, 50 μM curcumin, two-dimensional environment): 36.7%

Compound: COc1cccc2c1C(=O)c1c(O)c3c(c(O)c1C2=O)C[C@@](O)(C(=O)CO)C[C@@H]3O[C@H]1C[C@H](N)[C@H](O)[C@H](C)O1 [doxorubicin]
- viability at 3 µM ([5]; NCI-H1703, 24 h, 24 hours, three-dimensional environment (Fc 4%-Sc 50% support)): 94.5%
- viability at 3 µM ([5]; NCI-H1703, 24 h, 24 hours, two-dimensional environment): 55.1%
- viability at 3 µM ([5]; NCI-H1703, 48 h, 48 hours, three-dimensional environment (Fc 4%-Sc 50% support)): 95.7%
- viability at 3 µM ([5]; NCI-H1703, 48 h, 48 hours, two-dimensional environment): 40.8%
- viability at 5 µM (EL4 cells; [7]): 71.4%
- viability at 5 µM (EL4 cells; [8]): 58.6%

Compound: CC(=O)O[C@H]1C(=O)[C@@]2(C)[C@H]([C@H](OC(=O)c3ccccc3)[C@]3(O)C[C@H](OC(=O)[C@H](O)[C@@H](NC(=O)c4ccccc4)c4ccccc4)C(C)=C1C3(C)C)[C@]1(OC(C)=O)CO[C@@H]1C[C@@H]2O [paclitaxel]
- viability at 3 µM ([6]; DU-145, 24 h, 24 hours, three-dimensional environment (Fc 4%-Sc 50% support)): 93.5%
- viability at 3 µM ([6]; DU-145, 24 h, 24 hours, two-dimensional environment): 50.2%
- viability at 3 µM ([6]; DU-145, 48 h, 48 hours, three-dimensional environment (Fc 4%-Sc 50% support)): 64.2%
- viability at 3 µM ([6]; DU-145, 48 h, 48 hours, two-dimensional environment): 14.6%
- viability at 10 µM ([4]; A2780, 10 μM paclitaxel, two-dimensional environment): 12.3%
- viability at 20 µM ([4]; A2780, 20 μM paclitaxel, two-dimensional environment): 6.4%
- viability at 0.5 µM ([4]; read-out: cell viability, 0.5 μM paclitaxel, 24 hours, three-dimensional environment (hydrogel support)): 94.2%
- viability at 0.5 µM ([4]; read-out: viability as compared with the control group, 0.5 μM paclitaxel, 24 hours, two-dimensional environment): 60.9%
- viability at 10 µM ([4]; A2780, 168 h, 10 μM paclitaxel, three-dimensional environment (cultured 7 days in hydrogel support)): 40.2%
- viability at 20 µM ([4]; A2780, 168 h, 20 μM paclitaxel, three-dimensional environment (cultured 7 days in hydrogel support)): 51.4%

Compound: Oc1ccc(C=Cc2cc(O)cc(O)c2)cc1 [resveratrol]
- viability at 100 µM (EL4 cells; [7]): 93.5%
- viability at 100 µM (EL4 cells; [8]): 50.2%

From patent publication US10227560B2, “Biomimetic support for three-dimensional cell culturing, method for manufacturing same, and use thereof” (PUSAN NATIONAL UNIVERSITY INDUSTRY-UNIVERSITY COOPERATION …, priority 2014, dated 2019)
